{"source": "patent US5747545A", "about": "“Method of preventing NMDA receptor complex-mediated Neuronal damage” (priority 1995, dated 1998)", "key": {"[1]": {"system": "NMDA receptor (rat cortical neurons in culture)", "test": "Digital fura-2 imaging of NMDA-evoked intracellular [Ca2+] in cultured cortical neurons", "type": "cell-based, rat (Sprague-Dawley)", "conditions": "50 μM NMDA; Examples 1-2; NTG 100 μM in Example 2", "description": "The concentration of intracellular free Ca^2+ ([Ca^2+ ]i) is measured in neonatal cortical neurons by digital imaging microscopy with the Ca^2+ sensitive fluorescent dye fura 2, as follows. The same cortical neuronal cultures as described above are used. During Ca^2+ measurements, unless otherwise stated the fluid bathing the neurons consists of Hanks' balanced salts: 137.6 mM NaCl, 1 mM NaHCO3, 0.34 mM Na2 HPO4, 0.44 mM KH2 PO4, 5.36 mM KCl, 1.25 mM CaCl2, 0.5 mM MgSO4, 0.5 mM MgCl2, 5 mM Hepes NaOH, 22.2 mM glucose, and sometimes with phenol red indicator (0.001% v/v); pH 7.2. NMDA (in the absence Mg^++), glutamate, and other substances are usually applied to the neurons by pressure ejection after dilution in this bath solution. Neuronal [Ca^2+ ]i is analyzed with fura 2-acetoxy-methyl ester (AM) as described [Grynkiewicz, et al., J. Biol. Chem. 260:3440 (1985); Williams et al., Nature 318:558 (1985); Connor et al., J. Neurosci. 7:1384 (1987); Connor et al., Science 240:649 (1988); Cohan et al., J. Neurosci. 7:3588 (1987); Mattson, et al., ibid, 9:3728 (1989)]. After adding Eagle's minimum essential medium containing 10 μM fura 2-AM to the neurons, the cultures are incubated at 37° C. in a 5% CO2 /95% air humidified chamber and then rinsed. The dye is loaded, trapped, and deesterified within 1 hour, as determined by stable fluorescence ratios and the effect of the Ca^2+ ionophore ionomycin on [Ca^2+ ]i is measured. During Ca^2+ imaging, the cells are incubated in a solution of Hepes-buffered saline with Hanks' balanced salts. The [Ca^2+ ]i is calculated from ratio images that are obtained by measuring the fluorescence at 500 nm that is excited by 350 and 380 nm light with a DAGE MTI 66 SIT or QUANTEX QX-100 Intensified CCD camera mounted on a Zeiss Axiovert 35 microscope. Exposure time for each picture is 500 ms. Analysis is performed with a Quantex (Sunnyvale, Calif.) QX7-210 image-processing system. Since cells are exposed to ultraviolet light only during data collection (generally less than a total of 20 s per cell), bleaching of fura 2 is minimal.\nIn this experiment, the effect of NTG on intracellular [Ca^++ ] increases induced by NMDA were followed using digital [Ca^++ ] imaging techniques, based on the dye fura-2.\nSpecifically, the model for NMDA-mediated neurotoxicity involves exposure of cultured rat cortical neurons to NMDA in the presence of glycine (a co-agonist).\nCortical cultures were derived from embryonic (fetal day 15 or 16) Sprague-Dawley rats as described previously (Dichter, 1978; Rosenberg and Aizenman, 1989). […]"}, "[2]": {"conditions": "intravenous NTG, human; cited from earlier work"}}}
{"molecule": "O=[N+]([O-])OCC(CO[N+](=O)[O-])O[N+](=O)[O-]", "note": "[NTG, 1,2,3-propanetriol trinitrate]", "values": [{"measurement": "Effect on NMDA-evoked [Ca2+]i response", "setting": "[1]", "result": "persistently decreased the NMDA-evoked [Ca^2+ ]i response"}, {"measurement": "Time to systemic tolerance, intravenous continuous infusion", "setting": "[2]", "result": "18 to 24", "unit": "h"}]}
